# Tests used:
# barnyard grass [1] = assay: Test Example 3: herbicidal effect by foliage application, Wagner pot (Table 18, symbol H); format: in vivo, barnyard grass (Echinochloa crus-galli); conditions: 320 g/ha
# In short: (§1)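 Plants were sown in alluvial soil held under 0.1–0.5 cm standing water and grown 14 days in a greenhouse at 25–30 °C. An emulsifiable formulation, water-diluted to the set dose, was then sprayed onto the foliage, and effects were scored three weeks later using previously defined criteria.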
# Chinese sprangletop = assay: Test Example 3: herbicidal effect by foliage application, Wagner pot (Table 18, symbol D); format: in vivo, chinese sprangletop (Leptochloa chinensis); conditions: 320 g/ha
# In short: as §1
# rice flat sedge = assay: Test Example 3: herbicidal effect by foliage application, Wagner pot (Table 18, symbol E); format: in vivo, rice flat sedge (Cyperus iria); conditions: 320 g/ha
# In short: as §1
# southern crabgrass [2] = assay: Test Example 4: herbicidal effect by soil treatment (Table 19, symbol F); format: in vivo, southern crabgrass (Digitaria ciliaris); conditions: 320 g/ha
# In short: (§2)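 Scoring uses the grading scale of an earlier test, three weeks post-application. Treatment consists of spraying a diluted emulsion formulation across the surface of sterilized diluvial soil in which seeds are buried near 1.5 cm deep; boxes are kept in a greenhouse between 25° C. and 30° C.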
# green foxtail [3] = assay: Test Example 4: herbicidal effect by soil treatment (Table 19, symbol G); format: in vivo, green foxtail (Setaria viridis); conditions: 320 g/ha
# In short: as §2
# barnyard grass [4] = assay: Test Example 4: herbicidal effect by soil treatment (Table 19, symbol H); format: in vivo, barnyard grass (Echinochloa crus-galli); conditions: 320 g/ha
# In short: as §2
# wild oat [5] = assay: Test Example 4: herbicidal effect by soil treatment (Table 19, symbol I); format: in vivo, wild oat (Avena fatua); conditions: 320 g/ha
# In short: as §2
# blackgrass [6] = assay: Test Example 4: herbicidal effect by soil treatment (Table 19, symbol J); format: in vivo, blackgrass (Alopecurus myosuroides); conditions: 320 g/ha
# In short: as §2
# Italian ryegrass [7] = assay: Test Example 4: herbicidal effect by soil treatment (Table 19, symbol K); format: in vivo, Italian ryegrass (Lolium multiflorum); conditions: 320 g/ha
# In short: as §2
# windgrass [8] = assay: Test Example 4: herbicidal effect by soil treatment (Table 19, symbol L); format: in vivo, windgrass (Apera spica-venti); conditions: 320 g/ha
# In short: as §2
# velvetleaf [9] = assay: Test Example 4: herbicidal effect by soil treatment (Table 19, symbol M); format: in vivo, velvetleaf (Abutilon theophrasti); conditions: 320 g/ha
# In short: as §2
# redroot pigweed [10] = assay: Test Example 4: herbicidal effect by soil treatment (Table 19, symbol N); format: in vivo, redroot pigweed (Amaranthus retroflexus); conditions: 320 g/ha
# In short: as §2
# lambsquarters [11] = assay: Test Example 4: herbicidal effect by soil treatment (Table 19, symbol O); format: in vivo, lambsquarters (Chenopodium album); conditions: 320 g/ha
# In short: as §2
# chickweed [12] = assay: Test Example 4: herbicidal effect by soil treatment (Table 19, symbol P); format: in vivo, common chickweed (Stellaria media); conditions: 320 g/ha
# In short: as §2
# false cleavers = assay: Test Example 4: herbicidal effect by soil treatment (Table 19, symbol Q); format: in vivo, false cleavers (Galium spurium); conditions: 320 g/ha
# In short: as §2
# persian speedwell [13] = assay: Test Example 4: herbicidal effect by soil treatment (Table 19, symbol R); format: in vivo, Persian speedwell (Veronica persica); conditions: 320 g/ha
# In short: as §2
# southern crabgrass [14] = assay: Test Example 5: herbicidal effect by foliage application, plastic box (Table 20, symbol F); format: in vivo, southern crabgrass (Digitaria ciliaris); conditions: foliage application, 320 g/ha, evaluated three weeks after application
# In short: (§3)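 Post-emergence foliar test in sterilized diluvial soil. Compound applied as water-diluted emulsion at a predetermined rate to 14-day-old plants; evaluation at three weeks.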
# green foxtail [15] = assay: Test Example 5: herbicidal effect by foliage application, plastic box (Table 20, symbol G); format: in vivo, green foxtail (Setaria viridis); conditions: foliage application, 320 g/ha, evaluated three weeks after application
# In short: as §3
# barnyard grass [16] = assay: Test Example 5: herbicidal effect by foliage application, plastic box (Table 20, symbol H); format: in vivo, barnyard grass (Echinochloa crus-galli); conditions: foliage application, 320 g/ha, evaluated three weeks after application
# In short: as §3
# wild oat [17] = assay: Test Example 5: herbicidal effect by foliage application, plastic box (Table 20, symbol I); format: in vivo, wild oat (Avena fatua); conditions: foliage application, 320 g/ha, evaluated three weeks after application
# In short: as §3
# blackgrass [18] = assay: Test Example 5: herbicidal effect by foliage application, plastic box (Table 20, symbol J); format: in vivo, blackgrass (Alopecurus myosuroides); conditions: foliage application, 320 g/ha, evaluated three weeks after application
# In short: as §3
# Italian ryegrass [19] = assay: Test Example 5: herbicidal effect by foliage application, plastic box (Table 20, symbol K); format: in vivo, Italian ryegrass (Lolium multiflorum); conditions: foliage application, 320 g/ha, evaluated three weeks after application
# In short: as §3
# windgrass [20] = assay: Test Example 5: herbicidal effect by foliage application, plastic box (Table 20, symbol L); format: in vivo, windgrass (Apera spica-venti); conditions: foliage application, 320 g/ha, evaluated three weeks after application
# In short: as §3
# velvetleaf [21] = assay: Test Example 5: herbicidal effect by foliage application, plastic box (Table 20, symbol M); format: in vivo, velvetleaf (Abutilon theophrasti); conditions: foliage application, 320 g/ha, evaluated three weeks after application
# In short: as §3
# redroot pigweed [22] = assay: Test Example 5: herbicidal effect by foliage application, plastic box (Table 20, symbol N); format: in vivo, redroot pigweed (Amaranthus retroflexus); conditions: foliage application, 320 g/ha, evaluated three weeks after application
# In short: as §3
# lambsquarters [23] = assay: Test Example 5: herbicidal effect by foliage application, plastic box (Table 20, symbol O); format: in vivo, lambsquarters (Chenopodium album); conditions: foliage application, 320 g/ha, evaluated three weeks after application
# In short: as §3
# chickweed [24] = assay: Test Example 5: herbicidal effect by foliage application, plastic box (Table 20, symbol P); format: in vivo, common chickweed (Stellaria media); conditions: foliage application, 320 g/ha, evaluated three weeks after application
# In short: as §3
# persian speedwell [25] = assay: Test Example 5: herbicidal effect by foliage application, plastic box (Table 20, symbol R); format: in vivo, Persian speedwell (Veronica persica); conditions: foliage application, 320 g/ha, evaluated three weeks after application
# In short: as §3
compound,measurement,setting,value
Cc1nn(C)c(=O)c(-c2c(-c3ccc(F)cc3)sc3ccc(Cl)cc23)c1O [2-097],"herbicidal effect on H (barnyard grass), rating 0-5",barnyard grass [1],5 (Herbicidal rate of 90% or more (almost completely withered))
same,"herbicidal effect on D (Chinese sprangletop), rating 0-5",Chinese sprangletop,3 (Herbicidal rate of 40% or more and less than 70%)
same,"herbicidal effect on E (rice flat sedge), rating 0-5",rice flat sedge,4 (Herbicidal rate of 70% or more and less than 90%)
same,"herbicidal effect rating, F: southern crabgrass",southern crabgrass [2],2 (Herbicidal rate of 20% or more and less than 40%)
same,"herbicidal effect rating, G: green foxtail",green foxtail [3],3 (Herbicidal rate of 40% or more and less than 70%)
same,"herbicidal effect rating, H: barnyard grass",barnyard grass [4],3 (Herbicidal rate of 40% or more and less than 70%)
same,"herbicidal effect rating, I: wild oat",wild oat [5],1 (Herbicidal rate of 5% or more and less than 20%)
same,"herbicidal effect rating, J: blackgrass",blackgrass [6],5 (Herbicidal rate of 90% or more (almost completely withered))
same,"herbicidal effect rating, K: Italian ryegrass",Italian ryegrass [7],5 (Herbicidal rate of 90% or more (almost completely withered))
same,"herbicidal effect rating, L: windgrass",windgrass [8],5 (Herbicidal rate of 90% or more (almost completely withered))
same,"herbicidal effect rating, M: velvetleaf",velvetleaf [9],3 (Herbicidal rate of 40% or more and less than 70%)
same,"herbicidal effect rating, N: redroot pigweed",redroot pigweed [10],5 (Herbicidal rate of 90% or more (almost completely withered))
same,"herbicidal effect rating, O: lambsquarters",lambsquarters [11],5 (Herbicidal rate of 90% or more (almost completely withered))
same,"herbicidal effect rating, P: chickweed",chickweed [12],5 (Herbicidal rate of 90% or more (almost completely withered))
same,"herbicidal effect rating, Q: false cleavers",false cleavers,4 (Herbicidal rate of 70% or more and less than 90%)
same,"herbicidal effect rating, R: persian speedwell",persian speedwell [13],5 (Herbicidal rate of 90% or more (almost completely withered))
same,herbicidal effect on F: southern crabgrass,southern crabgrass [14],5 (Herbicidal rate of 90% or more (almost completely withered))
same,herbicidal effect on G: green foxtail,green foxtail [15],5 (Herbicidal rate of 90% or more (almost completely withered))
same,herbicidal effect on H: barnyard grass,barnyard grass [16],5 (Herbicidal rate of 90% or more (almost completely withered))
same,herbicidal effect on I: wild oat,wild oat [17],5 (Herbicidal rate of 90% or more (almost completely withered))
same,herbicidal effect on J: blackgrass,blackgrass [18],5 (Herbicidal rate of 90% or more (almost completely withered))
same,herbicidal effect on K: Italian ryegrass,Italian ryegrass [19],5 (Herbicidal rate of 90% or more (almost completely withered))
same,herbicidal effect on L: windgrass,windgrass [20],5 (Herbicidal rate of 90% or more (almost completely withered))
same,herbicidal effect on M: velvetleaf,velvetleaf [21],5 (Herbicidal rate of 90% or more (almost completely withered))
same,herbicidal effect on N: redroot pigweed,redroot pigweed [22],5 (Herbicidal rate of 90% or more (almost completely withered))
same,herbicidal effect on O: lambsquarters,lambsquarters [23],5 (Herbicidal rate of 90% or more (almost completely withered))
same,herbicidal effect on P: chickweed,chickweed [24],5 (Herbicidal rate of 90% or more (almost completely withered))
same,herbicidal effect on R: persian speedwell,persian speedwell [25],5 (Herbicidal rate of 90% or more (almost completely withered))
